Measurements as given in patent publication US9463195B2, “Dissolution of amyloid fibrils by flavonoids and other compounds” (The Regents of the University of California, priority 2006, dated 2016).
Like-named read-outs stand apart in the source and are kept apart here.

Assays:
[1] = target: T1, preformed human β-2 microglobulin fibrils (Homo sapiens, UniProt P61769); experiment: Thioflavin T fluorescence high-throughput screen (slope assay score) for disruption of preformed fibrils; assay type: biochemical
T1 sequence (P61769 21-119): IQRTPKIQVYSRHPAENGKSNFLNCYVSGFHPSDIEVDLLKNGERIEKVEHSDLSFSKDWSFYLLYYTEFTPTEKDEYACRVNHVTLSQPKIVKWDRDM
Method: As used herein, “slope assay score” means the slope of the relative fluorescence of thioflavin T versus time curve for a given compound in a thioflavin T fluorescence assay. A negative slope signifies a decrease in thioflavin T fluorescence over time.
The human β-2 microglobulin fibrils were prepared in vitro at 0.1 mg/mL protein in 25 mM phosphate, pH 2, 0.2 M NaCl without agitation for 1 week at 37° C., in the same manner as Ivanova et al. See Ivanova et al. (Proc Natl Acad Sci U.S.A. 2004 Jul. 20; 101(29):10584-9).
In our experiments, disruption of the fibrillar structure of preformed β-2 microglobulin fibrils was monitored by fluorescence. The dye used, thioflavin T, serves as a probe for the presence or absence of amyloid fibrils. Thioflavin T binds specifically to human β-2 microglobulin fibrils, causing a red shift in the fluorescence excitation spectra of the dye to produce a peak in the fluorescence emission spectrum at 482 nm when the excitation wavelength is set at 444 nm. […] Because aliquotting of fibrils has an inherent variability, we aimed for a high signal/noise ratio of ˜10.
In the fluorescence assay used here, preformed human β-2 microglobulin fibrils were mixed with a solution of 5 μM ThT in 50 mM glycine, pH 8.6 in a 3:14 ratio (final concentrations: 4.1 μM ThT, 41.2 mM glycine, 0.018 mg/mL β-2 microglobulin, 35 mM NaCl and 4.4 mM phosphate). Fluorescence was measured immediately after mixing (excitation wavelength set at 444 nm, emission wavelengths at 482, 490, and 502 nm) with a Molecular Devices FlexStation II.
In our experiments, we screened 5200 compounds to determine whether a compound could disrupt preformed human β-2 microglobulin fibrils. Preformed β-2 microglobulin fibrils and ThT were mixed in the ratios described above in Example 2 and divided among seventeen 384-well glass-bottom plates (Costar #6569) using 40 μL/well. Each of the sixteen commercial plates contained four columns of control wells: columns 1, 2, and 23 contained preformed fibrils+dimethylsulfoxide (herein, DMSO), but no compound; column 24 contained nonfibrillar β2M+DMSO (no compound). The final concentrations of compound and DMSO in the other wells were 10 μM and 1%, respectively. Compounds were obtained from the following chemical libraries: the MicroSource Discovery Systems, Inc. Spectrum Collection library (J Virology 77: 10288 (2003); Ann Rev Med 56: 321 (2005)), the first four plates from the Prestwick Chemical Inc. library, two BIOMOL plates (phosphatase/kinase inhibitor library and bioactive lipid library), and the first five plates from the ChemBridge Corporation DIVERSet.
Plate 17 was prepared in-house and set up slightly differently than the commercial plates. Column 24 contains nonfibrillar B2M as in the other plates. However, only the first two rows contain added compounds, and the remaining rows contain control samples (fibrils mixed with thioflavin T, no compound). The chemicals used to prepare this supplemental plate were purchased from SIGMA. For each compound, a 1 mM solution in OmniSolv DMSO was prepared and filtered with Millex-FG 0.2 micron filters. The supplementary plate contained compounds at 1 or 10 mM in 100% DMSO, such that the final screening concentration is 10 or 100 μM compound in I% DMSO.
All plates were read manually on a Molecular Devices FlexStation II using the bottom-read function. For each of the wells, an initial fluorescence intensity measurement was taken as a baseline.

[2] = target: T1, preformed human β-2 microglobulin fibrils; experiment: Dose-response testing by thioflavin T fluorescence; assay type: biochemical
Method: Twelve compounds were selected for testing their dose-response effects. Dose-response curves were derived as follows. Preformed β-2 microglobulin fibrils were mixed with ThT in the ratios described above and divided into portions of 40 μL per well across 8 wells. The final concentrations were the same as used in the high-throughput screen: 4.1 μM ThT, 41.2 mM glycine, 0.018 mg/mL B2M, 35 mM NaCl, 4.4 mM phosphate. The first and last wells of each row were controls (B2M fibrils+ThT+solvent (water or DMSO)). To wells 2-7 of a given row, test compound was added to the β2M fibril/ThT mix such that the following final concentrations in the well were reached: 10 mM, 1 mM, 100 μM, 10 μM, 1 μM, and 100 nM. Each row was set up in duplicate. The wells were incubated for 99 hours and data collected at 2.5 hour intervals. Compound 22 was tested using both water and DMSO as solvent.
It is visually apparent that concentrations down to 10 μM of both compound 22 and L18 affect the B2M/Tht fluorescence.

[3] = cited from earlier work
[4] = target: T1, preformed human β-2 microglobulin fibrils; experiment: Electron microscopy as a secondary screen of fibril disruption; assay type: biochemical
Method: Electron microscopy was used to confirm the effects of, among others, compounds 22 and L18 on the fibrils. Compounds 22 and L18 were mixed with drug and solvent or solvent alone and were separately incubated with preformed human β-2 microglobulin fibrils for two weeks. Compound 22 was tested at three concentrations (1 mM, 100 μM, and 10 μM). Aliquots were taken immediately after mixing, at day 2, at day 5, day 7, and day 14. Samples were fixed to grids (made hydrophilic by glow-discharge) upon taking the aliquots, washed with distilled water, and stained with 1% uranyl acetate. Grids were examined in a Hitachi H-7000 transmission electron microscope operating at 75 kV. Images were collected on Kodak electron microscope film 4489.

[5] = orally at doses at least twice this high (Ullmann, Haller et al. 2004); cited from earlier work

## O=C(O[C@@H]1Cc2c(O)cc(O)cc2O[C@@H]1c1cc(O)c(O)c(O)c1)c1cc(O)c(O)c(O)c1 [Compound 22, Epigallocatechin gallate]
[1]
  effective in the fluorescence assay at disrupting β-2 microglobulin fibers: disrupts
[1]; slope of relative ThT fluorescence versus time, more negative = stronger disruption
  Slope Assay Score: −.087
Solubility in water
  solubility in water: soluble
[2]
  concentration at which the compound affects thioflavin T/β-2M fibril fluorescence in a dose-dependent manner: 10 µM
  dose-dependent effect on thioflavin T/β-2 microglobulin fibril fluorescence (words): dose-dependent
[2]; ThT/β2M fibril fluorescence, tested 100 nM to 10 mM
  Dose-Response (conc. at which slope is better than control): 10 µM
[2]; in the range of
  concentration at which preformed human B2M fibrils are disrupted: ~10 µM
[2]; listed as EGCG
  dose-dependent effect on thioflavin T/β-2 microglobulin fibril fluorescence (words): dose-related effects
[3]; patients, single oral dose (Chow et al. 2001)
  average plasma level: 1 µM
[3]; single oral dose (Nakagawa, Okuda and Miyazawa 1997)
  plasma levels reached: 4.4 µM
[3]; single oral dose (Unno et al. 1996)
  human plasma levels reached: 2 to 4 µM
[4]; 10 μM, two-week incubation
  state of fibrils by electron microscopy at 10 μM compound: significantly disrupted
[4]; 1 mM, two-week incubation
  state of fibrils by electron microscopy at 1 mM compound: almost all of the fibrils
[4]; at the concentrations tested
  effect on fibrils by electron microscopy: had an effect on fibrils
[5]
  oral tolerability: well-tolerated
